# Data from article PMC5320730, “Synthetic curcumin derivative DK1 possessed G2/M arrest and induced apoptosis through accumulation of intracellular ROS in MCF-7 breast cancer cells” (Cancer Cell International, 2017).
# Key:
# [1] = system: MCF-7 cells; conditions: cited from earlier work; for SI value: on MCF-7
# [2] = system: HL-60 cells; assay: MTT cell viability assay, HL-60; assay type: cell-based; conditions: Homo sapiens, HL-60, MTT
# Protocol: (§1) Promyelocytic leukemia HL60, hepatoblastoma HepG2, breast cancer MCF-7 and MDA-MB-231 cells were purchased from ATCC (USA) and cultured in RPMI-1640 media (Sigma, USA), supplemented with 10% fetal bovine serum (FBS) (PAA, USA). Normal epithelial MCF-10A cells (ATCC, USA) was maintain in DMEM-F12 (Sigma, USA) supplemented with hydrocortisone (0.5 μg/mL), insulin (10 μg/mL), human epidermal growth factor (hEGF) (20 ng/mL) (Sigma, USA) and 10% FBS (PAA, USA).
# (§2) MTT cell viability assay was used to evaluate the effect of DK1 on viability of HL-60, HepG2, MCF-7, MDA-MB-231 and MCF-10A cells. Briefly, each type of cells (8 × 10^4cells/well) was seeded in 96-well plate in 37 °C CO2 incubator overnight. Then, DK1 was added at concentration ranging between 200 and 3.125 µM by twofold serial dilution. Untreated control was prepared simultaneously. After that, the cells were incubated for 24, 48 and 72 h at 37 °C in 5% CO2 incubator. After the incubation period, all well was added with 20 μL of MTT solution (5 mg/mL) and further incubated for 3 h. Subsequently, 170 μL of supernatant from each well was discarded, 100 μL of dimethyl sulfoxide (DMSO) was added to solubilize the purple formazan crystal and the absorbance was measured at a wavelength of 570 nm by Enzyme-linked immunosorbent assay (ELISA) plate reader (Bio-tek instruments, USA). All cell lines were assayed for three biological replicates each with triplicates. Percentage of cell viability was calculated using the following formula: Cell viability%=OD sample/OD control×100%
# (§3) IC50 value (concentration of DK1 that reduce 50% of cell viability compared to control cell) was determined from the graph of cell viability (%) vs DK1 concentration. Subsequently, selective index, which indicating selectivity of DK1 against cancerous and normal breast cell lines, was calculated by: Selective indexSI=IC50of DK1on normal MCF-10A cell line/IC50on breast cancerous cell lineHL60/HepG2/MCF-7/MDA-MB-231
# [3] = system: HepG2 cells; assay: MTT cell viability assay, HepG2; assay type: cell-based; conditions: Homo sapiens
# Protocol: as §1, §2, §3
# [4] = system: MCF-7 cells; assay: MTT cell viability assay, MCF-7; assay type: cell-based, human; conditions: for IC50: Homo sapiens, MCF7, MCF-7, MTT
# Protocol: as §1, §2, §3
# [5] = system: MDA-MB-231 cells; assay: MTT cell viability assay, MDA-MB-231; assay type: cell-based, human; conditions: for IC50: Homo sapiens, MDA-MB-231, MTT
# Protocol: as §1, §2, §3
# [6] = system: MCF-10A cells; assay: MTT cell viability assay, normal MCF-10A; assay type: cell-based; conditions: Homo sapiens
# Protocol: as §1, §2, §3
# [7] = system: MCF-7 cells; assay: Flow cytometry AnnexinV-FITC/PI apoptosis analysis; assay type: cell-based, human
# Protocol: Apoptosis of DK1 treated MCF-7 was compared with the control cell by Flow cytometry AnnexinV-FITC/PI apoptosis assay. Briefly, harvested cells were resuspended in 100 μL of 1× binding buffer and stained with 5 μL each of AnnexinV-FITC and propidiumiodide. After 15 min of incubation, the cells were added with 400 μL of 1× binding buffer and subjected to BD FACS Calibur flow cytometer analysis using BD Cell Quest Pro software (Becton–Dickinson, USA).
# [8] = system: p53 in MCF-7 cells; assay: Western blot analysis of p53; assay type: cell-based, human; conditions: for promotion of p53 protein compared to control: MCF-7, 25 µM, western blot
# Protocol: (§4) Total protein was extracted from harvested cell with Radioimmunoprecipitation assay (RIPA) buffer supplemented with phosphatase inhibitor cocktail (Roche, Canada) and the concentration was quantified by Bradford assay (Sigma, USA). Then, 100 μg of extracted protein was subjected to sodium dodecyl sulfate polyacrylamide gel electrophoresis (SDS-PAGE) (Bio-Rad, USA), transferred to nitrocellulose membrane, block with 0.5% skimmed milk overnight, washed with Tris-buffered saline tween (TBST) buffer and incubated with primary antibodies (anti-CDC2, anti-pCDC2 (Tyr15), anti-p53, and anti-β-actin at a dilution of 1:1000 (Abcam, USA) for 1 h. After that, membranes were washed, incubated with 1:5000 diluted goat anti-rabbit IgG H&L conjugated to […] (Abcam, USA) and developed under chemiluminescence condition (Super Signal West Pico, Pierce, USA) using the ChemiDoc XRS (Bio-Rad, USA). Differential level of evaluated protein in control and DK1 treated MCF-7 was calculated based on the bands intensity analyzed using the Quantity One 1D Analysis software (Bio-rad, USA).
# [9] = system: PLK1, p21 and WEE-1 expression in MCF-7 cells; assay: qRT-PCR of cell cycle related genes
# [10] = system: MCF-7 cells; assay: Fluorescent microscopy with acridine orange/propidium iodide staining, count of 200 cells; assay type: cell-based, human; conditions: MCF-7, 25 µM, 72 h, AO/PI, scoring of 200 cells
# Protocol: Prior to harvest the cell, morphology of control and DK1 treated MCF-7 was observed using light microscope. In addition, harvested control and treated MCF-7 cells were resuspended in 100 μL of Phosphate buffer saline (PBS), stained with 10 μg/mL of Acridine orange (AO) and propidium iodide (PI) and viewed under fluorescent microscope (Nikon, Japan).
# [11] = system: GSH in MCF-7 cells; assay: Intracellular glutathione (GSH) quantification; assay type: cell-based, human; conditions: MCF-7, 25 µM
# Protocol: (§5) Harvested cell was subjected to two times of freeze and thaw in 100 μL of PBS. The lysed cell was then pelleted and the supernatant was subjected to GSH and ROS quantification using Glutathione assay kit (Sigma, USA) and OxiSelect ROS assay kit (Cell Biolabs, USA) according to manufacturers’ protocol.
# (§6) For GSH quantification, 10 μL of cell lysate supernatant was added with 150 μL of working solution (1.5 mg/mL DTNB solution, 6 units/mL glutathione reductase and 1× assay buffer), incubated for 5 min and added with 50 μL of NADPH solution (0.16 mg/mL). The absorbance was read at a wavelength of 412 nm by ELISA plate reader (Bio-Tek instrument, USA) for every minute in duration of 5 min. For intracellular ROS quantification, supernatant was added with 10 μM DCFH-DA for 30 min at 37 °C. Then, the fluorescence intensity of DCFH-DA was measured using microplate fluorometer (Thermo Scientific, USA) with a 485/538 nm filter. Fold change of GSH and ROS was calculated by dividing absorbance or fluorescence intensity of DK1 treated MCF-7 with untreated control MCF-7.
# [12] = system: ROS in MCF-7 cells; assay: Intracellular reactive oxygen species (ROS) detection, DCFH-DA; assay type: cell-based, human; conditions: MCF-7, 25 µM
# Protocol: as §5, §6
# [13] = system: active caspase 9 in MCF-7 cells; assay: Active caspase 9 staining (CaspGLOW), fluorometry; assay type: cell-based, human; conditions: MCF-7, 25 µM
# Protocol: (§7) The level of active caspase 9 and cytochrome c of the control and DK1 treated MCF-7 were quantified using CaspGLOW Red Active Caspase-9 staining kit (BioVision, USA) and human cytochrome c platinum ELISA (eBioscience Affymetrix, USA), respectively according to manufacturers’ protocol. Fold change of caspase 9 and cytochrome c was calculated by dividing fluorescence intensity or absorbance of DK1 treated MCF-7 with untreated control MCF-7.
# [14] = system: cytochrome c in MCF-7 cells; assay: Cytochrome c ELISA; assay type: cell-based, human; conditions: MCF-7, 25 µM
# Protocol: as §7
# [15] = system: CDC2 and phospho-CDC2 (Tyr15) in MCF-7 cells; assay: Western blot analysis of CDC2 and p-CDC2 (Tyr15); assay type: cell-based, human; conditions: MCF-7, 25 µM, 48 and 72 h
# Protocol: as §4
# [16] = system: MCF-7 cells; assay: Flow cytometry cell cycle analysis (PI); assay type: cell-based, human; conditions: MCF-7, 25 µM
# Protocol: Cell cycle progression of control and DK1 treated MCF-7 was analysed using BD FACS Calibur flow cytometer (Becton–Dickinson, USA). Briefly, harvested cells were added with 250 μL of trypsin buffer with 10 min incubation, followed by 200 μL of trypsin inhibitor with RNase buffer with 10 min incubation, and finally stained with 200 μL of propidium iodide (PI) from BD Cycletest Plus kit (Becton–Dickinson, USA). All stained cells were subjected to BD FACS Calibur flow cytometer analysis using BD Cell Quest Pro software (Becton–Dickinson, USA).
# [17] = IC50 MCF-10A / IC50 MCF-7, 24 h
# [18] = IC50 MCF-10A / IC50 MCF-7, 72 h
# [19] = IC50 MCF-10A / IC50 MDA-MB-231, 24 h
# [20] = IC50 MCF-10A / IC50 MDA-MB-231, 48 h
# [21] = IC50 MCF-10A / IC50 MDA-MB-231, 72 h
# [22] = MCF-7, 25 µM, 72 h, AnnexinV/PI
# [23] = MCF-7, 25 µM, qRT-PCR, p < 0.05
molecule,measurement,setting,value
4-hydroxy tamoxifen,SI,[1]; normal vs cancerous cell line,< 2
"O=C1c2ccccc2C(=O)c2c(O)cc(Br)cc21 [BHAQ, 3-Bromo-1-hydroxy-9,10-anthraquinone]",SI value,[1],2.31
"COc1cc(/C=C/C(=O)CC(=O)/C=C/c2ccc(O)c(OC)c2)ccc1O [Curcumin, diferuloylmethane]",IC50,[2]; 24 h,57 ± 3.75 µM
same,IC50,[2]; 48 h,29.9 ± 3.11 µM
same,IC50,[2]; 72 h,21.7 ± 1.76 µM
same,IC50,[3]; 24 h,67.9 ± 2.88 µM
same,IC50,[3]; 48 h,40.7 ± 2.76 µM
same,IC50,[3]; 72 h,24.4 ± 2.25 µM
same,IC50,[4]; 24 h,40.7 ± 3.24 µM
same,IC50,[4]; 48 h,36.6 ± 2.31 µM
same,IC50,[4]; 72 h,30.2 ± 2.36 µM
same,Selective index of MCF-10A/MCF-7,[4]; [17],4.67
same,Selective index of MCF-10A/MCF-7,[4]; [18],3.33
same,IC50,[5]; 24 h,35.3 ± 4.16 µM
same,IC50,[5]; 48 h,21.7 ± 1.87 µM
same,IC50,[5]; 72 h,21.7 ± 3.18 µM
same,Selective index of MCF-10A/MDA,[5]; [19],5.38
same,Selective index of MCF-10A/MDA,[5]; [20],5.25
same,Selective index of MCF-10A/MDA,[5]; [21],4.63
same,IC50,[6]; 24 h,190 ± 3.67 µM
same,IC50,[6]; 48 h,114 ± 3.57 µM
same,IC50,[6]; 72 h,100 ± 3.17 µM
same,"late apoptosis, folds lower than DK1 treatment","[7]; MCF-7, 72 h, curcumin 30 µM vs DK1 25 µM",2.6 folds
same,late apoptosis,"[7]; MCF-7, curcumin 30 µM, 72 h, AnnexinV/PI",15%
same,"deregulation of apoptosis related genes or proteins, particularly p53, compared to DK1","[8]; MCF-7, curcumin 30 µM, 72 h",lower degree of deregulation
same,significant upregulation of p53,[8]; curcumin treated MCF-7,absent
same,deregulation of cell cycle regulation related genes compared to DK1,"[9]; MCF-7, curcumin 30 µM, 72 h",lower degree of deregulation
"O=C(/C=C(\O)c1ccccc1)c1ccccc1O [DK1, (Z)-3-hydroxy-1-(2-hydroxyphenyl)-3-phenylprop-2-en-1-one]",IC50,[2]; 24 h,138 ± 2.16 µM
same,IC50,[2]; 48 h,124 ± 3.27 µM
same,IC50,[2]; 72 h,73.4 ± 2.65 µM
same,IC50,[3]; 24 h,> 150 µM
same,IC50,[3]; 48 h,138 ± 4.13 µM
same,IC50,[3]; 72 h,64.2 ± 3.12 µM
same,IC50,[4]; 24 h,96.8 ± 4.87 µM
same,IC50,[4]; 48 h,33.3 ± 3.5 µM
same,IC50,[4]; 72 h,25 ± 3.71 µM
same,Selective index of MCF-10A/MCF-7,[4]; [17],>2.17
same,Selective index of MCF-10A/MCF-7,"[4]; IC50 MCF-10A / IC50 MCF-7, 48 h",3.75
same,Selective index of MCF-10A/MCF-7,[4]; [18],4.17
same,SI values,"[4]; MCF-7, overall statement",higher than 2
same,IC50,[5]; 24 h,104 ± 5.23 µM
same,IC50,[5]; 48 h,45.8 ± 4.66 µM
same,IC50,[5]; 72 h,37.5 ± 4.82 µM
same,Selective index of MCF-10A/MDA,[5]; [19],>2.00
same,Selective index of MCF-10A/MDA,[5]; [20],2.72
same,Selective index of MCF-10A/MDA,[5]; [21],2.77
same,SI values,"[5]; MDA-MB-231, overall statement",higher than 2
same,IC50,[6]; 24 h,> 208 µM
same,IC50,[6]; 48 h,126 ± 3.67 µM
same,IC50,[6]; 72 h,104 ± 5.21 µM
same,cells undergone apoptosis,[10],~ 12.5%
same,cells undergone late apoptosis/necrosis,[10],~ 31%
same,early apoptosis,[7]; [22],~ 14%
same,late apoptosis,[7]; [22],~ 39%
same,reduction of GSH level compared to control,[11]; 48 h,~ 2.2 fold
same,reduction of GSH level compared to control,[11]; 72 h,~ 3.3 fold
same,generation of ROS compared to control,[12]; 48 h,~ 1.9 fold
same,generation of ROS compared to control,[12]; 72 h,~ 2.6 fold
same,promotion of active caspase 9 compared to control,[13]; 48 h,~ 1.9 fold
same,promotion of active caspase 9 compared to control,[13]; 72 h,~ 2.4 fold
same,promotion of cytochrome c compared to control,[14]; 48 h,~ 2.1 fold
same,promotion of cytochrome c compared to control,[14]; 72 h,~ 2.8 fold
same,promotion of p53 protein compared to control,[8]; 48 h,~ 1.6 fold
same,promotion of p53 protein compared to control,[8]; 72 h,~ 2.0 fold
same,CDC2 protein level,[15],reduction
same,phospho-CDC2 (Tyr15) protein level,[15],accumulation
same,percentage of cell population in G2/M phase,[16]; 24 h (control ~18%),~ 25%
same,percentage of cell population in G2/M phase,[16]; 48 h (control ~18%),~ 26%
same,percentage of cell population in G2/M phase,[16]; 72 h (control ~18%),~ 31%
same,expression of PLK1 compared to control,[9]; [23],downregulated
same,expression of WEE-1 compared to control,[9]; [23],enhanced
same,expression of p21 compared to control,[9]; [23],enhanced
COc1ccc(/C=C/C(=O)c2c(O)cc(OC)cc2OC)cc1 [flavokawain A],SI value,[1],3.78
